In US12178800B2, “Sulforaphane-melatonin-like compound” (priority 2018, dated 2024):

Tests used:
irradiated skin of pigs = assay: Skin biopsy histology (hematoxylin and eosin): basal cell density and epidermal thickness; type: in vivo, Gottingen mini-pigs
Experimental: A 5 mm punch biopsy was performed under anesthesia to obtain a skin sample from the non-irradiated healthy skin and the irradiated skin area 3, 7, 21, and 35 days after irradiation. After collection, skin biopsy samples were pinned to a cork to maintain the 5 mm size. Biopsy samples of non-irradiated skin were obtained from each pig before irradiation. All biopsy samples were processed and embedded in paraffin wax after fixation in 10% buffered formalin, then cut into 4 μm thick coronal sections and deparaffinized. Next, the sections were stained with hematoxylin and eosin and examined by optical microscopy. The longest rete ridge on each slide was selected and measured from the bottom of the basal layer to the bottom of the stratum corneum, avoiding the areas in which the inclusion appeared to be oblique. The mean values were then calculated based on the measurements of each section on each slide. The cell density of the basal layers was determined by counting the cells in the basement membrane at a depth of at least 5 mm. The results were expressed as the number of cells per millimeter of basement membrane.
The data were expressed as the means±the standard error of the mean (SEM) values. Differences between groups were evaluated by one-way analysis of variance (ANOVA) followed by a Student-Newman-Keuls post hoc test for multiple comparisons. In all cases, a p<0.05 was considered significant.

mouse tongues = assay: Histopathology (H&E) of tongue specimens after X-ray irradiation; type: in vivo, ICR mice; conditions: 12 days post-irradiation
cyclooxygenase-2 (COX-2) = assay: COX-2 immunohistochemistry of irradiated skin; type: in vivo, Gottingen mini-pigs; conditions: 7, 21 and 35 days after irradiation
Experimental: After incubation in normal horse serum for 60 min to prevent nonspecific binding, the skin sections were incubated with mouse anti-nuclear factor (NF)-κB (sc-109, 1:200; Santa Cruz Biotechnology, Santa Cruz, CA, USA) and mouse anti-COX-2 (18-7379, 1:200; Zymed, USA) in phosphate buffered saline-Tween (PBS-T overnight at 4° C. The sections were subsequently incubated with biotinylated horse anti-mouse IgG (VECTASTAIN Elite ABC Kit; Vector Laboratories, USA). The immunoreactivity was assessed using the avidin-biotin peroxidase complex (VECTASTAIN Elite ABC Kit; Vector Laboratories). The peroxidase reaction was developed using a diaminobenzidine substrate kit (DAB Substrate Kit SK-4100; Vector Laboratories). As a control, the primary antibodies were omitted from the immunohistochemical analysis of a few test sections in each experiment. The sections were then counterstained with hematoxylin before being mounted.

peripheral blood = assay: Peripheral blood counts after focal irradiation; type: in vivo, Gottingen mini-pigs
Text: Blood samples were collected via the ear vein into sample tubes containing ethylenediaminetetraacetic acid at different time points (before irradiation, 3, 7, 21, and 35 days after irradiation). Peripheral eosinophils were automatically counted using a Hemavet System (Drew Scientific, UK).

[1] = 21 and 35 days after irradiation, decrease not significant

Structure (SMILES): COc1cc2c(CCCCN=C=S)c[nH]c2cc1O [6OHM-6-HITC]
- basal cell counts (density) in the epidermis (irradiated skin of pigs; 21 days after irradiation, p<0.01 vs. vehicle-treated irradiation group): significantly ameliorated
- thickness of the epidermis (irradiated skin of pigs; 35 days after irradiation, p<0.01 vs. vehicle-treated irradiation group): prevented this decrease
- basal cell counts (density) in the epidermis (irradiated skin of pigs; 35 days after irradiation, p<0.05 vs. vehicle-treated irradiation group): significantly ameliorated
- degree of epidermolysis of the tongue (mouse tongues): preserved
- infiltration of inflammatory cells (mouse tongues): decreased
- COX-2 expression in the irradiated skin vs. vehicle-treated skin (cyclooxygenase-2 (COX-2)): lower
- eosinophils in the blood (peripheral blood; [1]): decreased
- neutrophils in the blood (peripheral blood; [1]): decreased
- radioprotective effect on peripheral blood (white blood cell count) (peripheral blood; initially (7 days after exposure)): did not show a radioprotective effect
